Assay [1] concerns the target T1, human calcitonin receptor (hCTR) (Homo sapiens, UniProt P30988).
T1 construct: host or cells: BHK (Baby Hamster Kidney), Hollex-1 cell line
T1 sequence (P30988 25-474): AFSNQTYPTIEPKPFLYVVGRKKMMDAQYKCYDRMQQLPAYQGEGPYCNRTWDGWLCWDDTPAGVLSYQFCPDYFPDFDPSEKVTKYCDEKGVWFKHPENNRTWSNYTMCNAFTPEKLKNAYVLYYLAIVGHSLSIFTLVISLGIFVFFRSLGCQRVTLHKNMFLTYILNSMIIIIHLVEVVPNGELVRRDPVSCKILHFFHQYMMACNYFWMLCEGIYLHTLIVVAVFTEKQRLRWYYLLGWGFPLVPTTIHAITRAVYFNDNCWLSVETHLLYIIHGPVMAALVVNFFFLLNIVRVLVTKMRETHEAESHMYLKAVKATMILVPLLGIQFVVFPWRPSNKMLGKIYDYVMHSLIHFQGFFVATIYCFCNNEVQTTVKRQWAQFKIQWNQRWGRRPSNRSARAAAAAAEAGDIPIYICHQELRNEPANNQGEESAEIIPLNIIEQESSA
In words: Human calcitonin receptor (hCTR) in vitro potency assay, CRE-luciferase reporter in BHK cells. Conditions: BHK hCTR/CRE-Luc cells, 3 hours incubation, assay buffer with 1% ovalbumin; read-out: hCalcR potency, EC50. The class given is cell-based. An outline of the steps:
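BHK cells stably co-expressing human calcitonin receptor and a CRE-luciferase reporter, seeded the day before, were exposed to 7-fold serial dilutions (7 concentrations, often starting near 10 nM) in DMEM/HEPES/1% ovalbumin buffer for 3 h at 37 °C. Luminescence was then read after SteadyLite Plus addition.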

Assay [2] addresses T2, human amylin receptor (hAMYR3) (Homo sapiens, UniProt O60896+P30988).
T2 construct: host or cells: BHK (Baby Hamster Kidney), Hollex-1 cell line further transfected with RAMP3
In words: Human amylin receptor (hAMYR3) in vitro potency assay, CRE-luciferase reporter in BHK cells. The class given is cell-based. The following applies: BHK hAMYR3/CRE-Luc cells, 3 hours incubation, assay buffer with 1% ovalbumin. Summed up:
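BHK cells stably expressing human calcitonin receptor (a) plus RAMP3 and a CRE-luciferase reporter, seeded overnight, then exposed to 7-point 7-fold dilutions (often from ~10 nM) in DMEM/HEPES buffer with 1% ovalbumin for 3 h at 37 °C. Luciferase luminescence read after SteadyLite Plus addition.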

Starred links: 1 amine or outer side, 2 acyl side, 3 side chain; linkers in the order of their positions; H or OH if unused. Residues, ends and D or L forms follow the SMILES beside them. Groups on a side chain read outwards from the residue. *: point of attachment. C20 diacid = O=C(O)CCCCCCCCCCCCCCCCCCC(=O)*; C18 diacid = O=C(O)CCCCCCCCCCCCCCCCC(=O)*; γGlu = O=C(O)[C@H](CCC(=O)[*:2])N[*:1]

T2 sequence (O60896 24-148, one chain of several): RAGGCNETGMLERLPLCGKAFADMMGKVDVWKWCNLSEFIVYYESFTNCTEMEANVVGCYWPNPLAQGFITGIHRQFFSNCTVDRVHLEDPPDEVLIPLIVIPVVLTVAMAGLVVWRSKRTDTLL

`CC[C@H](C)[C@H](NC(=O)[C@H](C)NC(=O)CNC(=O)[C@H](Cc1ccccc1)NC(=O)[C@@H]1CCCN1C(=O)[C@H](CC(=O)O)NC(=O)[C@H](CO)NC(=O)[C@H](CO)NC(=O)[C@H](Cc1c[nH]cn1)NC(=O)[C@H](Cc1c[nH]cn1)NC(=O)[C@H](CC(C)C)NC(=O)[C@H](Cc1ccccc1)NC(=O)[C@H](CCC(=O)O)NC(=O)[C@H](C)NC(=O)[C@H](CC(C)C)NC(=O)[C@H](CCCNC(=N)N)NC(=O)[C@H](CCC(N)=O)NC(=O)[C@@H](NC(=O)[C@H](CCC(N)=O)NC(=O)[C@H](CC(C)C)NC(=O)[C@@H](NC(=O)[C@H](CO)NC(=O)[C@H](CC(C)C)NC(=O)[C@H](Cc1c[nH]cn1)NC(=O)[C@H](CO)NC(=O)[C@H](C)NC(=O)CC[C@H](NC(=O)CCCCCCCCCCCCCCCCC(=O)O)C(=O)O)[C@@H](C)O)[C@@H](C)O)C(=O)N1CCC[C@H]1C(=O)N[C@@H](CO)C(=O)N[C@@H](CO)C(=O)N[C@H](C(=O)N[C@@H](CC(=O)O)C(=O)N[C@H](C(=O)NCC(=O)N1CCC[C@H]1C(=O)N[C@@H](CC(=O)O)C(=O)N[C@H](C(=O)N1CCC[C@H]1C(N)=O)[C@@H](C)O)C(C)C)[C@@H](C)O` [Compound 33, N^1-[(4S)-4-carboxy-4-(17-carboxyheptadecanoylamino)butanoyl]-[Ala1,Ser2,His3,Leu4,Ser5,Leu7,Gln8,Glu14,His17,Asp21,Pro22,Pro27,Asp31,Pro34,Asp35,Pro37]-human amylin] ({C18 diacid-γGlu}-ASHLSTLQTQRLAEFLHHSSDPFGAIPSSTDVGPDTP-NH2): the EC50 was 1.74 pM in assay [1] and 1.69 pM in assay [2].

In the case of `CC[C@H](C)[C@H](NC(=O)[C@@H]1CCCN1C(=O)CNC(=O)[C@H](Cc1ccccc1)NC(=O)[C@H](Cc1c[nH]cn1)NC(=O)[C@H](Cc1c[nH]cn1)NC(=O)[C@H](CC(C)C)NC(=O)[C@H](Cc1ccccc1)NC(=O)[C@H](CCC(=O)O)NC(=O)[C@H](C)NC(=O)[C@H](CC(C)C)NC(=O)[C@H](CCCNC(=N)N)NC(=O)[C@H](C)NC(=O)[C@@H](NC(=O)[C@H](CCC(N)=O)NC(=O)[C@H](C)NC(=O)[C@@H](NC(=O)[C@H](CO)NC(=O)[C@H](CC(C)C)NC(=O)[C@H](Cc1c[nH]cn1)NC(=O)[C@H](CO)NC(=O)[C@H](C)NC(=O)CC[C@H](NC(=O)CCCCCCCCCCCCCCCCCCC(=O)O)C(=O)O)[C@@H](C)O)[C@@H](C)O)C(=O)N[C@@H](CC(C)C)C(=O)N1CCC[C@H]1C(=O)N1CCC[C@H]1C(=O)N[C@H](C(=O)N[C@@H](CC(=O)O)C(=O)N[C@H](C(=O)NCC(=O)N[C@@H](CO)C(=O)N[C@@H](CCC(=O)O)C(=O)N[C@H](C(=O)N1CCC[C@H]1C(N)=O)[C@@H](C)O)C(C)C)[C@@H](C)O` [Compound 5, N^1-[(4S)-4-carboxy-4-(19-carboxynonadecanoylamino)butanoyl]-[Ala1,Ser2,His3,Leu4,Ser5,Ala7,Gln8,Ala10,Glu14,His17,Pro25,Pro28,Pro29,Asp31,Glu35,Pro37],des-(19-22)-human amylin] ({C20 diacid-γGlu}-ASHLSTAQTARLAEFLHHFGPILPPTDVGSETP-NH2), the EC50 in assay [1] was 1.49 pM; in assay [2] it was 1.09 pM.

Regarding `CC[C@H](C)[C@H](NC(=O)[C@H](C)NC(=O)CNC(=O)[C@H](Cc1ccccc1)NC(=O)[C@@H]1CCCN1C(=O)[C@H](CC(=O)O)NC(=O)[C@H](CO)NC(=O)[C@H](CO)NC(=O)[C@H](Cc1c[nH]cn1)NC(=O)[C@H](Cc1c[nH]cn1)NC(=O)[C@H](CC(C)C)NC(=O)[C@H](Cc1ccccc1)NC(=O)[C@H](CCC(=O)O)NC(=O)[C@H](C)NC(=O)[C@H](CC(C)C)NC(=O)[C@H](CCCNC(=N)N)NC(=O)[C@H](CCC(N)=O)NC(=O)[C@@H](NC(=O)[C@H](CCC(N)=O)NC(=O)[C@H](C)NC(=O)[C@@H](NC(=O)[C@H](CO)NC(=O)[C@H](CC(C)C)NC(=O)[C@H](Cc1c[nH]cn1)NC(=O)[C@H](CO)NC(=O)[C@H](C)NC(=O)CC[C@H](NC(=O)CCCCCCCCCCCCCCCCC(=O)O)C(=O)O)[C@@H](C)O)[C@@H](C)O)C(=O)N1CCC[C@H]1C(=O)N[C@@H](CO)C(=O)N[C@@H](CO)C(=O)N[C@H](C(=O)N[C@@H](CC(=O)O)C(=O)N[C@H](C(=O)NCC(=O)N1CCC[C@H]1C(=O)N[C@@H](CC(N)=O)C(=O)N[C@H](C(=O)N1CCC[C@H]1C(N)=O)[C@@H](C)O)C(C)C)[C@@H](C)O` [Compound 26, N^1-[(4S)-4-carboxy-4-(17-carboxyheptadecanoylamino)butanoyl]-[Ala1,Ser2,His3,Leu4,Ser5,Ala7,Gln8,Glu14,His17,Asp21,Pro22,Pro27,Asp31,Pro34,Pro37]-human amylin] ({C18 diacid-γGlu}-ASHLSTAQTQRLAEFLHHSSDPFGAIPSSTDVGPNTP-NH2), the EC50 in assay [1] was 2.19 pM; in assay [2], 1.31 pM.

`CC[C@H](C)[C@H](NC(=O)[C@H](CCCCNC(=O)CC[C@H](NC(=O)CCCCCCCCCCCCCCCCC(=O)O)C(=O)O)NC(=O)CNC(=O)[C@H](Cc1ccccc1)NC(=O)[C@@H]1CCCN1C(=O)[C@H](CC(=O)O)NC(=O)[C@H](CO)NC(=O)[C@H](CO)NC(=O)[C@H](Cc1c[nH]cn1)NC(=O)[C@H](Cc1c[nH]cn1)NC(=O)[C@H](CC(C)C)NC(=O)[C@H](Cc1ccccc1)NC(=O)[C@H](CCC(=O)O)NC(=O)[C@H](C)NC(=O)[C@H](CC(C)C)NC(=O)[C@H](CCCNC(=N)N)NC(=O)[C@H](C)NC(=O)[C@@H](NC(=O)[C@H](CCC(N)=O)NC(=O)[C@H](C)NC(=O)[C@@H](NC(=O)[C@H](CO)NC(=O)[C@H](CC(C)C)NC(=O)[C@H](Cc1c[nH]cn1)NC(=O)[C@H](CO)NC(=O)[C@H](C)NC(C)=O)[C@@H](C)O)[C@@H](C)O)C(=O)N1CCC[C@H]1C(=O)N[C@@H](CO)C(=O)N[C@@H](CO)C(=O)N[C@H](C(=O)N[C@@H](CC(=O)O)C(=O)N[C@H](C(=O)NCC(=O)N1CCC[C@H]1C(=O)N[C@@H](CC(=O)O)C(=O)N[C@H](C(=O)N1CCC[C@H]1C(N)=O)[C@@H](C)O)C(C)C)[C@@H](C)O` [Compound 40, N^1-acetyl,N{Epsilon-25}-[(4S)-4-carboxy-4-(17-carboxyheptadecanoylamino)butanoyl]-[Ala1,Ser2,His3,Leu4,Ser5,Ala7,Gln8,Ala10,Glu14,His17,Asp21,Pro22,Lys25,Pro27,Asp31,Pro34,Asp35,Pro37]-human amylin] (Ac-ASHLSTAQTARLAEFLHHSSDPFGK([γGlu-C18 diacid])IPSSTDVGPDTP-NH2): the EC50 is 1.29 pM in assay [1] and 1.38 pM in assay [2].

Source of the values: patent publication US12116388B2, “Amylin receptor agonists” (Novo Nordisk A/S, priority 2022, dated 2024).
